Structures are written as SMILES.

The target in the experiment is hERG potassium channels (Homo sapiens (Human), UniProt Q12809). The experiment in a line: Blocking of hERG potassium currents (automated patch clamp, HEK293-hERG). It is filed as cell-based. As to conditions: HEK293-hERG stable cell strain. On the procedure:
The blocking of hERG potassium currents by the compounds disclosed herein was tested in a stable cell strain transfected with hERG potassium channels using automated patch clamp.
An HEK293-hERG stable cell strain was subcultured in an MEM/EBSS medium (10% FBS, 400 μg/mL G418, 1% MEM non-essential amino acid solution (100×), 1% sodium pyruvate solution) at a density of 1:4, and an automated patch clamp experiment was conducted between hour 48 and hour 72 after the start of the culture. On the day of the experiment, the cells were digested with 0.25% trypsin, then centrifuged, collected, and resuspended in an extracellular fluid (140 mM NaCl, 4 mM KCl, 1 mM MgCl2, 2 mM CaCl2), 5 mM D-glucose monohydrate, 10 mM Hepes, pH 7.4, 298 mOsm) to form a cell suspension. The cell suspension was placed on the cell bank of the Patchliner instrument, which then applied the cells to a chip (NPC-16) by means of a negative pressure controller. The negative pressure drew individual cells to the wells of the chip. […] Data were recorded and analyzed using the HEAK Patchmaster, HEAK EPC10 patch clamp amplifier (Nanion), Pathliner software and Pathcontrol HT software, and the currents of the compounds at each concentration and the current of the blank control were analyzed.
In general terms: hERG is a cardiac potassium channel; its block is linked to QT prolongation.

Sequence of hERG potassium channels (Q12809 whole entry): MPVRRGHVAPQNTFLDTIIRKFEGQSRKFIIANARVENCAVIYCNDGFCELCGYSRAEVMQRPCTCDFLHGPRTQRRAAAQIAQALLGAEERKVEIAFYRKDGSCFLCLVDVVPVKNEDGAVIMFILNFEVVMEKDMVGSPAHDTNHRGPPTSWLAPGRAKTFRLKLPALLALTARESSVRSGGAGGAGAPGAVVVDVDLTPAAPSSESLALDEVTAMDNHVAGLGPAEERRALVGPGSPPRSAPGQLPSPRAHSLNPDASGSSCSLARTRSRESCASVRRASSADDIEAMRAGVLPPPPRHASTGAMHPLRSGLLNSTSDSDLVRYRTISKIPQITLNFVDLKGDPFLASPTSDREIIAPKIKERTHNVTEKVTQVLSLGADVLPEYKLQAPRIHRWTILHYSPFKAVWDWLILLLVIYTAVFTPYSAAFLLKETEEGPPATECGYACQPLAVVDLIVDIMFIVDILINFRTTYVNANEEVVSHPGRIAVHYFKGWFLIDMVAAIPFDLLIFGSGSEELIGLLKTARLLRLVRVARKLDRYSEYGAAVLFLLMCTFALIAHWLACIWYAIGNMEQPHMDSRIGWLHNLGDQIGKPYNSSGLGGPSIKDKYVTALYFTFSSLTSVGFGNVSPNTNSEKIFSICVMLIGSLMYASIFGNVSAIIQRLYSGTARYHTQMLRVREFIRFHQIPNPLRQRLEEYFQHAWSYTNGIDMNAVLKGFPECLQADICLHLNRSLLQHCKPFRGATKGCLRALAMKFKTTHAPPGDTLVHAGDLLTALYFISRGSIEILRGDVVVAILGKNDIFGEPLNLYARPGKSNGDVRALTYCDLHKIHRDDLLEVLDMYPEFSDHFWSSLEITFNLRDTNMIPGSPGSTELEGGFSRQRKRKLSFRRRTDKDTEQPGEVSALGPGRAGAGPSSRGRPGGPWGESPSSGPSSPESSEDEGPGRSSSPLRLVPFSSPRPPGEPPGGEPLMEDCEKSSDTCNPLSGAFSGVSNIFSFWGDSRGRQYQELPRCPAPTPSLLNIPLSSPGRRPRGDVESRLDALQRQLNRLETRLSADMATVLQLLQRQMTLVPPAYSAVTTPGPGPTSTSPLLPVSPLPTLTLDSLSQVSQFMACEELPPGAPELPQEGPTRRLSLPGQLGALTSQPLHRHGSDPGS

For orientation: IC50 means the midpoint of a concentration-inhibition curve. `C[C@@H]1Cc2cc3c(cc2[C@@H](c2ncc(N[C@H]4CCN(CCCF)C4)cc2F)N1CC(F)(F)CO)OCO3` [Example 11, 2,2-Difluoro-3-((5S,7R)-5-(3-fluoro-5-(((S)-1-(3-fluoropropyl)pyrrolidin-3-yl)amino)pyridin-2-yl)-7-methyl-7,8-dihydro-[1,3]dioxolo[4,5-g]isoquinolin-6(5H)-yl)propan-1-ol] had an IC50 greater than 30 µM.

The compound `[2H]C1([2H])Oc2cc3c(cc2O1)[C@@H](c1ccc(N[C@H]2CCN(CCCF)C2)cn1)N(CC(F)(F)CO)[C@H](C)C3` [Example 12, 2,2-Difluoro-3-((5S,7R)-5-(5-(((S)-1-(3-fluoropropyl)pyrrolidin-3-yl)amino)pyridin-2-yl)-7-methyl-7,8-dihydro-[1,3]dioxolo[4,5-g]isoquinolin-6(5H)-yl-2,2-d2)propan-1-ol] had an IC50 greater than 30 µM.

The values are drawn from patent US12428428B2, “Tricyclic tetrahydroisoquinoline derivative, preparation method therefor and application thereof in medicine” (JIANGSU HENGRUI MEDICINE CO., LTD., priority 2020, dated 2025).
